Experimental data from EP0100257A2, “Aminoalkyl naphthalene derivatives, their salts, process for their preparation and the therapeutical use of these derivatives and salts” (DELALANDE S.A., priority 1982, dated 1984).

Experiments:
[1] = Acute toxicity (DL 50) in mice; settings: in vivo, ip, mouse, i.p., read-out: DL 50 souris
Description: Pour illustrer l'invention, on a rassemblé dans le tableau III ci-après les résultats obtenus dans ces deux tests avec quelques composés selon l'invention. Ce tableau donne en outre la toxicité aiguë (DL 50) des composés testés.

souris [2] = assay: Phenylbenzoquinone test (analgesic activity), protocol of Siegmund; format: in vivo; settings: ip, mouse, i.p., read-out: Propriétés analgésiques DE 50
souris [3] = assay: Antagonism of reserpine-induced ptosis (antidepressant activity), protocol of Gouret and Thomas; format: in vivo; settings: ip, 1 h; mouse, i.p.; ptosis observed one hour after reserpine 2 mg/kg i.v.; read-out: Propriétés antidépressives DE 50
Description: L'activité antidépressive a quant à elle été mise en évidence chez la souris par le test de l'antagonisme vis-à-vis du ptosis observé une heure après une injection intraveineuse (2 mg/kg) de réserpine chez la souris selon le protocole décrit par C.

Row | Compound | LD50 [1] | ED50 (souris [2]) | ED50 (souris [3])
1 | CN(C)Cc1cc(-c2ccccc2)c2ccccc2c1 [Numéro de code 2, chlorhydrate de N,N-diméthylaminométhyl-2 phényl-4 naphtalène] | 70 mg/kg | 4.5 mg/kg | 5.3 mg/kg
2 | NCCc1cc(-c2ccccc2)c2ccccc2c1 [Numéro de code 9, chlorhydrate de l'(amino-2) éthyl-2 phényl-4 naphtalène] | 58 mg/kg | 2.2 mg/kg | 3 mg/kg
